Like-named read-outs stand apart in the source and are kept apart here.
Legend:
[1] = tested on: SKOV-3 (ovarian adenocarcinoma); assay: MTT cytotoxicity assay, SKOV-3; format: cell-based, human
Procedure: (§6) Anticancer activity of cymantrenes was determined using a panel of human cancer cell lines that were derived from solid tumors. […] The inhibitory effect of cymantrene derivatives on cell proliferation and growth was determined based on survival curves and was expressed as IC50 values (concentration required to achieve a 50% decrease in cell viability when compared to the viability of untreated control cells) calculated using GraphPad Prism 4.02 software for Windows (GraphPad Software, San Diego, CA, USA). Cell viability was determined by the MTT microplate spectrophotometric cytotoxicity test.
(§7) Cells were grown as a monolayer in DMEM growth medium, supplemented with 10% FBS, penicillin (10 U/mL) and streptomycin (50 μg/mL), under standard conditions (37 °C, 5% CO2 and 95% air, 100% humidity) and periodically checked for Mycoplasma contamination.
(§8) The cytotoxicity of cymantrene derivatives was evaluated by the MTT microplate methods as described elsewhere [67] by incubating the cells with increasing concentrations of tested compounds for 24 h. Briefly, 0.1 mL of logarithmically growing cells were seeded in a 96-well microplate (5 × 10^4 cells/well) a day before the experiments and after 24 h of culture, tested compounds, dissolved in DMSO, and diluted in culture medium, were added. […] After further incubation for 24 h, the medium was replaced with fresh medium and the cells were allowed to grow for additional 48 h. Then, the medium was aspirated and 0.05 mL of MTT (final concentration of 5 mg/mL medium) added to each well, and the cells were incubated for further 4 h. The absorbance of the product, resulting from the MTT reduction, was read with a microplate reader at 545 nm. The percentage of viable cells was calculated by comparing the absorbance of treated cells with that of the untreated control cells (taken as 100%). The IC50 concentration of each compound was calculated from the cell survival curves using GraphPad Prism 4.02 software for Windows (GraphPad Software, San Diego, CA, USA).

[2] = tested on: MCF-7 (hormone-responsive breast adenocarcinoma); assay: MTT cytotoxicity assay, MCF-7; format: cell-based, human
Procedure: as §6, §7, §8

[3] = tested on: HepG2 (hepatocellular carcinoma); assay: MTT cytotoxicity assay, HepG2; format: cell-based, human
Procedure: as §6, §7, §8

[4] = tested on: U87-MG (glioblastoma); assay: MTT cytotoxicity assay, U87-MG; format: cell-based, human
Procedure: as §6, §7, §8

[5] = tested on: SKOV-3 cells; assay: Apoptotic/necrotic cell death, Hoechst 33258/propidium iodide staining, fluorescence microscopy; format: cell-based, human; details: for increase of apoptotic cells compared to untreated control cells: SKOV-3, 24 h treatment with IC50 concentrations, post-treatment 24 and 48 h; for apoptotic cell fraction predominantly increased: SKOV-3, IC50 concentrations
Procedure: (§1) To determine the mode of cell death that was triggered by cymantrene derivatives, appropriately stained SKOV-3 cells were evaluated for morphological changes using fluorescence microscopy. For evaluation of apoptosis and autophagy, cells were stained with Hoechst 33258/propidium iodide to distinguish between live, apoptotic and necrotic cells and reveal condensed chromatin and apoptotic bodies (a hallmark of apoptosis), and with acridine orange to detect the development of acidic vesicular organelles (AVOs—a hallmark of autophagy).
(§2) One day prior to the experiments, cells were seeded at the appropriate density into 35 mm diameter dishes. […] At the end of incubation, the medium was aspirated, the cell monolayer was washed twice with pre-warmed PBS, and fresh medium was added. The cells were cultured in drug-free medium for an additional 24 or 48 h to enable them to recover after the exposure to the compounds and to repair any induced damages.
Quantitative analysis of morphological changes that are associated with apoptosis, necrosis, and autophagy were assessed using a fluorescence microscope (Olympus IX70, Tokyo, Japan) at 400× magnification, as described elsewhere. At the indicated time points, cells were washed with PBS, trypsinized, and centrifuged at 1000 rpm (fixed angle rotor, 72× g) for 5 min at 37 °C. The supernatant was removed and the cell pellet (100 µL) was transferred to the Eppendorf tube, mixed with Ho33258 (2 µL, 0.13 mM) and PI (2 µL, 0.23 mM), and incubated for 5 min in the dark at room temperature. At least 300 stained cells were counted in triplicate in each of the three independent experiments. Cells were classified as live, apoptotic, or necrotic on the basis of their morphological and staining characteristics, and each fraction was related to the total cell number.

[6] = tested on: SKOV-3 cells; assay: Autophagy (acidic vesicular organelles, AVOs), acridine orange staining; format: cell-based, human; details: SKOV-3, IC50 concentrations 24 h, then 0, 24 or 48 h drug-free
Procedure: as §1, §2
The ability of tested compounds to induce autophagosome formation inside cells (the process associated with the induction of autophagy) was evaluated by microscopic examination of the morphology of cells stained with acridine orange (AO).

[7] = tested on: bloodstream forms of T. brucei clone 427-221a; assay: Trypanocidal assay, resazurin viability assay; format: cell-based, Trypanosoma brucei; details: for GI50: 50% growth inhibition; for MIC and GI50 ratios of cytotoxic to trypanocidal activities: HL-60 / T. brucei; for MIC: concentration at which all cells were killed, determined microscopically; for Selectivity GI50 Ratio / Selectivity MIC Ratio: ratio of cytotoxic (HL-60) to trypanocidal (T. brucei) activity
Procedure: (§3) All of the cultures were maintained at 37 °C in a humidified atmosphere containing 5% of CO2. Toxicity assays were performed, as previously described, with some modifications. In brief, trypanosomes and HL-60 cells were seeded at an initial cell density of 10^4/mL and 5 × 10^4/mL, respectively, in 96-well plates in a final volume of 200 μL culture medium containing various concentrations of test compounds dissolved in 100% DMSO. […] The controls contained DMSO alone. In all of the experiments, the final DMSO concentration was 0.9%. After 24 h incubation, 20 µL of a 0.5 mM resazurin solution prepared in PBS was added and the cultures were incubated for a further 48 h. Resazurin is a vital dye that, when being reduced by living cells, changes its colour from blue to pink. Thus, by measuring absorbance, the proliferation of cells can be easily determined. The change in absorbance was read with a microplate reader using a test wavelength of 570 nm and a reference wavelength of 630 nm. GI50 values were calculated by linear interpolation according to the method described by Huber and Koella. MIC values were determined microscopically.

[8] = tested on: human myeloid leukemia HL-60 cells; assay: in vitro
Procedure: as §3

[9] = tested on: S. aureus ATCC 29213 (MSSA); assay: Antibacterial liquid microdilution (CLSI M07-A8); format: cell-based, Staphylococcus aureus; details: 18 to 24 h
Procedure: (§4) Organometallic compounds play an increasingly important role in the search for new antibacterial agents. We, therefore, thought to investigate also the bactericidal activity of the newly synthesized cymantrenes 1–7, compound C and CymH. The antibacterial activity of the compounds was tested against Gram-positive methicillin-sensitive Staphylococcus aureus (MSSA), methicillin-resistant S. aureus (MRSA), vancomycin-intermediate S. aureus (VISA), S. epidermidis, and Gram-negative Escherichia coli bacterial strains, and expressed as minimal inhibitory concentration (MIC) values (Table 3).
(§5) The antibacterial activity of CymH, 1–7 and C and the reference drugs penicillin G and polymyxin B was tested by the liquid microdilution method under standard conditions using twofold dilution series, as described in the Clinical and Laboratory Standards Institute (CLSI), reference method M07-A8, and expressed as minimal inhibitory concentration (MIC) values. A panel of Gram-positive bacterial strains, S. aureus ATCC® 29213 (sensitive to methicillin, (MSSA)), S. aureus ATCC® 43300 (resistant to methicillin, (MRSA)), S. aureus ATCC 700787™ (intermediate to vancomycin, (VISA)), and S. epidermidis ATCC 12228™, and one Gram-negative, strain E. coli ATCC BAA-198™ (ESBL) were used. In addition, four clinical isolates of S. aureus (MSSA and MRSA) and two clinical isolates of S. epidermidis that were collected from different patients at the Medical University of Warsaw, Poland, were also tested. The bacterial cells were cultivated on tryptic soy agar (TSA) and nutrient agar (NA), according to ATCC recommendations. All of the strains were incubated at 37 °C. Tested compounds were dissolved in DMSO and then serially diluted twofold with cation-adjusted Mueller-Hinton broth (CAMHB). Then, 95 µL of the dilutions were dispensed into microdilution sterile plates (Mar-Four), followed by the addition of 5 µL of bacteria inoculum containing 5 × 10^4 CFU/mL. The final concentrations of the compounds ranged from 512 to 2 µg/mL. Each compound was tested in triplicate, and Penicillin G (8–0.15 µg/mL) and Polymyxin B (256–0.0625 µg/mL) were used as controls. The plates were incubated at 37 °C for 18 to 24 h depending on the bacterial strain. Thereafter, the absorbance was measured at λ = 540 nm and λ = 595 nm using a Spectrostar Omega microplate reader (BMG Labtech, Offenburg, Germany). The MIC value was defined as the lowest concentration of a compound that reduced the growth by 100%.

[10] = tested on: S. aureus ATCC 43300 (MRSA); assay: Antibacterial liquid microdilution (CLSI M07-A8); format: cell-based, Staphylococcus aureus; details: 18 to 24 h
Procedure: as §4, §5

[11] = tested on: S. aureus ATCC 700787 (VISA); assay: Antibacterial liquid microdilution (CLSI M07-A8); format: cell-based, Staphylococcus aureus; details: 18 to 24 h
Procedure: as §4, §5

[12] = tested on: E. coli ATCC BAA-198 (ESBL); assay: Antibacterial liquid microdilution (CLSI M07-A8); format: cell-based, Escherichia coli; details: 18 to 24 h
Procedure: as §4, §5

[13] = 24 h incubation, MTT, means ± SEM, read-out: cytotoxicity IC50, SKOV-3
[14] = 24 h incubation, MTT, means ± SEM, read-out: cytotoxicity IC50, MCF-7
[15] = 24 h incubation, MTT, means ± SEM, read-out: cytotoxicity IC50, HepG2
[16] = 24 h incubation, MTT, means ± SEM, read-out: cytotoxicity IC50, U87-MG
[17] = concentration at which all cells were killed
[18] = read-out: HL-60 GI50, 50% growth inhibition

SMILES | IC50 [1] [µM] | IC50 [2] [µM] | IC50 [3] [µM] | IC50 [4] [µM] | increase of apoptotic cells compared to untreated control cells [5] | induction of autophagy (cells containing AVOs) [6] | GI50 [7] [µM] | MIC and GI50 ratios of cytotoxic to trypanocidal activities [7] | MIC [7] [µM] | Selectivity GI50 Ratio [7] | Selectivity MIC Ratio [7] | MIC, S. aureus ATCC 29213 (MSSA) [9] [µg/mL] | MIC, S. aureus ATCC 43300 (MRSA) [10] [µg/mL] | MIC, S. aureus ATCC 700787 (VISA) [11] [µg/mL] | MIC, E. coli ATCC BAA-198 [12] [µg/mL] | IC50 [1, 13] [µM] | IC50 [2, 14] [µM] | IC50 [3, 15] [µM] | IC50 [4, 16] [µM] | HL-60 MIC [8, 17] [µM] | further results
O=C(CCn1cc(F)c(=O)[nH]c1=O)[C]12[CH]3[CH]4[CH]5[CH]1[Mn]4532.[C-]#[O+].[C-]#[O+].[C-]#[O+] (stereo not drawn) [Compound 1] | 75.1 ± 3.76 | 70.5 ± 2.52 | 114 ± 2.72 | 64.5 ± 3.22 | 6 fold | Less induction of autophagy | 3.02 ± 0.14 | 7–13 | 10 | 11.0 | 10 | 64 | 32 | 32 | >512 |  |  |  |  |  | GI50 [8]: 33.1 ± 3.4 µM; HL-60 MIC [8]: 100 µM
COC(CCn1cc(F)c(=O)n(C)c1=O)[C]12[CH]3[CH]4[CH]5[CH]1[Mn]4532.[C-]#[O+].[C-]#[O+].[C-]#[O+] (racemic) [Compound 4] | > 150 | > 150 | > 150 | > 150 | only a three-fold increase | Less induction of autophagy | 29.6 ± 6.8 |  | 100 | >3.4 | >1 | >512 | >512 | >512 | >512 |  |  |  |  |  | GI50 [8]: > 100 µM; HL-60 MIC [8]: >100 µM
O=[C]=[Mn](=[C]=O)(=[C]=O)[CH]1C=CC=C1 [CymH, tricarbonyl(η^5-cyclopentadienyl)manganese, reference compound] |  |  |  |  |  | greatest autophagic changes | 44.6 ± 12.3 |  | 100 | >2.2 | >1 | >512 | >512 | >512 | >512 | 121 ± 3.05 | 86 ± 1.3 | 74.7 ± 3.73 | 84.4 ± 4.22 | >100 | GI50 [8, 18]: > 100 µM
Nc1ncnc2c1ncn2CCC(O)[C]12[CH]3[CH]4[CH]5[CH]1[Mn]4532[P](c1ccccc1)(c1ccccc1)c1ccccc1.[C-]#[O+].[C-]#[O+] (racemic) [Compound 5] |  |  |  |  | 9 fold | Less induction of autophagy | 3.14 ± 0.31 | 7–13 | 10 | 9.1 | 10 | >256 | >256 | >256 | >256 | 63.8 ± 3.19 | 102 ± 1.11 | 106 ± 2.31 | 54.2 ± 2.71 | 100 | apoptotic cell fraction predominantly increased [5]: early apoptotic cells; GI50 [8, 18]: 28.7 ± 3 µM
O=c1[nH]c(=O)n(CCC(O)[C]23[CH]4[CH]5[CH]6[CH]2[Mn]5643[P](c2ccccc2)(c2ccccc2)c2ccccc2)cc1F.[C-]#[O+].[C-]#[O+] (racemic) [Compound 3] |  |  |  |  | only a three-fold increase | very little autophagic activity | 4.27 ± 0.13 | 7–13 | 10 | 7.2 | 10 | >256 | >256 | >256 | >256 | 53 ± 2.65 | 57.8 ± 2.89 | 65.8 ± 3.29 | 24.9 ± 1.24 | 100 | mitotic cell death ([5]; SKOV-3, morphology): induced extensive mitotic cell death; GI50 [8, 18]: 30.6 ± 2.6 µM
CCC(=O)[C]12[CH]3[CH]4[CH]5[CH]1[Mn]4532.[C-]#[O+].[C-]#[O+].[C-]#[O+] (stereo not drawn) [Compound 7, propionylocymantrene] | 69.8 ± 3.49 | > 150 | 110 ± 2.48 | 83.6 ± 1.18 | 9 fold | greatest autophagic changes |  |  |  |  |  | >512 | >512 | >512 | >512 |  |  |  |  |  | apoptotic cell fraction predominantly increased [5]: late-apoptotic cell fraction
Nc1ncnc2c1ncn2CCC(O)[C]12[CH]3[CH]4[CH]5[CH]1[Mn]45321[P](c2ccccc2)(c2ccccc2)CC[P]1(c1ccccc1)c1ccccc1.[C-]#[O+] (racemic) [Compound C] |  | 104 ± 1.19 | 66.6 ± 3.33 | 38.3 ± 1.91 | 9 fold | greatest autophagic changes |  |  |  |  |  | 32 | 32 | 32 | >128 |  |  |  |  |  | apoptotic cell fraction predominantly increased [5]: early apoptotic cells

Source: publication PMC6149849, “Cymantrenyl-Nucleobases: Synthesis, Anticancer, Antitrypanosomal and Antimicrobial Activity Studies” (Molecules : A Journal of Synthetic Chemistry and Natural …, 2017)
